Data from ChEMBL document CHEMBL1154382, “Preliminary SAR analysis of novel antiproliferative N(6),5'-bis-ureidoadenosine derivatives” (2009).

Columns and labels:
Type in all cases: functional
Settings in all cases: values are per cent of control
OVCAR-4 = experiment: Antiproliferative activity against human OVCAR4 cells at 10 uM assessed as cell growth inhibition relative to control
A549 = experiment: Antiproliferative activity against human A549 cells at 10 uM assessed as cell growth inhibition relative to control
KM12 = experiment: Antiproliferative activity against human KM12 cells at 10 uM assessed as cell growth inhibition relative to control
786-0 = experiment: Antiproliferative activity against human 786-0 cells at 10 uM assessed as cell growth inhibition relative to control
Malme-3M = experiment: Antiproliferative activity against human MALME-3M cells at 10 uM assessed as cell growth inhibition relative to control
HCC 2998 = experiment: Antiproliferative activity against human HCC2998 cells at 10 uM assessed as cell growth inhibition relative to control
NCI-H460 = experiment: Antiproliferative activity against human NCI-H460 cells at 10 uM assessed as cell growth inhibition relative to control
[1] = Antiproliferative activity against human Hs 578T cells at 10 uM assessed as cell growth inhibition relative to control
M14 = experiment: Antiproliferative activity against human M14 cells at 10 uM assessed as cell growth inhibition relative to control
NCI-H322M = experiment: Antiproliferative activity against human NCI-H322M cells at 10 uM assessed as cell growth inhibition relative to control
SF-539 = experiment: Antiproliferative activity against human SF539 cells at 10 uM assessed as cell growth inhibition relative to control
SN12C = experiment: Antiproliferative activity against human SN12C cells at 10 uM assessed as cell growth inhibition relative to control
COLO 205 = experiment: Antiproliferative activity against human COLO205 cells at 10 uM assessed as cell growth inhibition relative to control
DU-145 = experiment: Antiproliferative activity against human DU145 cells at 10 uM assessed as cell growth inhibition relative to control
SNB-75 = experiment: Antiproliferative activity against human SNB75 cells at 10 uM assessed as cell growth inhibition relative to control
UO-31 = experiment: Antiproliferative activity against human UO31 cells at 10 uM assessed as cell growth inhibition relative to control
CAKI-1 = experiment: Antiproliferative activity against human Caki1 cells at 10 uM assessed as cell growth inhibition relative to control
SNB-19 = experiment: Antiproliferative activity against human SNB19 cells at 10 uM assessed as cell growth inhibition relative to control
PC-3 = experiment: Antiproliferative activity against human PC3 cells at 10 uM assessed as cell growth inhibition relative to control
HCT-116 = experiment: Antiproliferative activity against human HCT116 cells at 10 uM assessed as cell growth inhibition relative to control
SF-295 = experiment: Antiproliferative activity against human SF295 cells at 10 uM assessed as cell growth inhibition relative to control
U-251 = experiment: Antiproliferative activity against human U251 cells at 10 uM assessed as cell growth inhibition relative to control
NCI-H226 = experiment: Antiproliferative activity against human NCI-H226 cells at 10 uM assessed as cell growth inhibition relative to control
OVCAR-5 = experiment: Antiproliferative activity against human OVCAR5 cells at 10 uM assessed as cell growth inhibition relative to control
OVCAR-8 = experiment: Antiproliferative activity against human OVCAR8 cells at 10 uM assessed as cell growth inhibition relative to control
HOP-92 = experiment: Antiproliferative activity against human HOP92 cells at 10 uM assessed as cell growth inhibition relative to control
SK-OV-3 = experiment: Antiproliferative activity against human SKOV3 cells at 10 uM assessed as cell growth inhibition relative to control
MOLT-4 = experiment: Antiproliferative activity against human MOLT4 cells at 10 uM assessed as cell growth inhibition relative to control
[2] = Antiproliferative activity against human […] cells at 10 uM assessed as cell growth inhibition relative to control
OVCAR-3 = experiment: Antiproliferative activity against human OVCAR-3 cells at 10 uM assessed as cell growth inhibition relative to control
LOX IMVI = experiment: Antiproliferative activity against human LOXIMVI cells at 10 uM assessed as cell growth inhibition relative to control
SF-268 = experiment: Antiproliferative activity against human SF268 cells at 10 uM assessed as cell growth inhibition relative to control
IGROV-1 = experiment: Antiproliferative activity against human IGROV1 cells at 10 uM assessed as cell growth inhibition relative to control
BT-549 = experiment: Antiproliferative activity against human BT549 cells at 10 uM assessed as cell growth inhibition relative to control
A498 = experiment: Antiproliferative activity against human A498 cells at 10 uM assessed as cell growth inhibition relative to control
EKVX = experiment: Antiproliferative activity against human EKVX cells at 10 uM assessed as cell growth inhibition relative to control
HT-29 = experiment: Antiproliferative activity against human HT-29 cells at 10 uM assessed as cell growth inhibition relative to control
SW-620 = experiment: Antiproliferative activity against human SW620 cells at 10 uM assessed as cell growth inhibition relative to control
TK-10 = experiment: Antiproliferative activity against human TK10 cells at 10 uM assessed as cell growth inhibition relative to control
HCT-15 = experiment: Antiproliferative activity against human HCT15 cells at 10 uM assessed as cell growth inhibition relative to control
MDA-MB-231 = experiment: Antiproliferative activity against human MDA-MB-231 cells at 10 uM assessed as cell growth inhibition relative to control
T47D = experiment: Antiproliferative activity against human T47D cells at 10 uM assessed as cell growth inhibition relative to control
UACC-62 = experiment: Antiproliferative activity against human UACC62 cells at 10 uM assessed as cell growth inhibition relative to control
SK-MEL-28 = experiment: Antiproliferative activity against human SK-MEL-28 cells at 10 uM assessed as cell growth inhibition relative to control
RXF 393 = experiment: Antiproliferative activity against human RXF393 cells at 10 uM assessed as cell growth inhibition relative to control
HL-60(TB) = experiment: Antiproliferative activity against human HL-60(TB) cells at 10 uM assessed as cell growth inhibition relative to control
MCF7 = experiment: Antiproliferative activity against human MCF7 cells at 10 uM assessed as cell growth inhibition relative to control
HOP-62 = experiment: Antiproliferative activity against human HOP62 cells at 10 uM assessed as cell growth inhibition relative to control
UACC-257 = experiment: Antiproliferative activity against human UACC257 cells at 10 uM assessed as cell growth inhibition relative to control
K562 = experiment: Antiproliferative activity against human K562 cells at 10 uM assessed as cell growth inhibition relative to control
SK-MEL-2 = experiment: Antiproliferative activity against human SK-MEL-2 cells at 10 uM assessed as cell growth inhibition relative to control
MDA-MB-468 = experiment: Antiproliferative activity against human MDA-MB-468 cells at 10 uM assessed as cell growth inhibition relative to control
NCI-H23 = experiment: Antiproliferative activity against human NCI-H23 cells at 10 uM assessed as cell growth inhibition relative to control
SK-MEL-5 = experiment: Antiproliferative activity against human SK-MEL-5 cells at 10 uM assessed as cell growth inhibition relative to control
NCI-H522 = experiment: Antiproliferative activity against human NCI-H522 cells at 10 uM assessed as cell growth inhibition relative to control
ACHN = experiment: Antiproliferative activity against human ACHN cells at 10 uM assessed as cell growth inhibition relative to control
CCRF-CEM = experiment: Antiproliferative activity against human CCRF-CEM cells at 10 uM assessed as cell growth inhibition relative to control

In the case of `CCOC(=O)C[C@H]1[C@@H](O[Si](C)(C)C(C)(C)C)[C@H](n2cnc3c(N)ncnc32)O[C@@H]1CO`, the growth, % of control at 10 µM (OVCAR-4) is reported as 97%, the growth, % of control at 10 µM (A549) is reported as 100% and the growth, % of control at 10 µM (KM12) is reported as 109%. For the same compound, the growth, % of control at 10 µM (786-0) was 97%, the growth, % of control at 10 µM (Malme-3M) was 93% and the growth, % of control at 10 µM (HCC 2998) was 104%. For the same compound, the growth, % of control at 10 µM (NCI-H460) was 101%, the growth, % of control at 10 µM [1] was 102% and the growth, % of control at 10 µM (M14) was 99%. It also gave a growth, % of control at 10 µM (NCI-H322M) of 91%, a growth, % of control at 10 µM (SF-539) of 91% and a growth, % of control at 10 µM (SN12C) of 85%. For the same compound, the growth, % of control at 10 µM (COLO 205) was 109%, the growth, % of control at 10 µM (DU-145) was 93% and the growth, % of control at 10 µM (SNB-75) was 75%. The growth, % of control at 10 µM (UO-31) was 72%, the growth, % of control at 10 µM (CAKI-1) was 92% and the growth, % of control at 10 µM (SNB-19) was 103%. It also gave a growth, % of control at 10 µM (PC-3) of 85%, a growth, % of control at 10 µM (HCT-116) of 94% and a growth, % of control at 10 µM (SF-295) of 97%. For the same compound, the growth, % of control at 10 µM (U-251) was 99%, the growth, % of control at 10 µM (NCI-H226) was 90% and the growth, % of control at 10 µM (OVCAR-5) was 101%. The growth, % of control at 10 µM (OVCAR-8) was 103%, the growth, % of control at 10 µM (HOP-92) was 81% and the growth, % of control at 10 µM (SK-OV-3) was 103%. It also gave a growth, % of control at 10 µM (MOLT-4) of 74%, a growth, % of control at 10 µM [2] of 99% and a growth, % of control at 10 µM (OVCAR-3) of 98%. The growth, % of control at 10 µM (LOX IMVI) was 92%, the growth, % of control at 10 µM (SF-268) was 98% and the growth, % of control at 10 µM (IGROV-1) was 90%. The growth, % of control at 10 µM (BT-549) was 79%, the growth, % of control at 10 µM (A498) was 98% and the growth, % of control at 10 µM (EKVX) was 75%. The growth, % of control at 10 µM (HT-29) was 98%, the growth, % of control at 10 µM (SW-620) was 103% and the growth, % of control at 10 µM (TK-10) was 94%. It also gave a growth, % of control at 10 µM (HCT-15) of 91%, a growth, % of control at 10 µM (MDA-MB-231) of 90% and a growth, % of control at 10 µM (T47D) of 82%. The growth, % of control at 10 µM (UACC-62) was 73%, the growth, % of control at 10 µM (SK-MEL-28) was 112% and the growth, % of control at 10 µM (RXF 393) was 112%. It also gave a growth, % of control at 10 µM (HL-60(TB)) of 89%, a growth, % of control at 10 µM (MCF7) of 89% and a growth, % of control at 10 µM (HOP-62) of 91%. The growth, % of control at 10 µM (UACC-257) was 105%, the growth, % of control at 10 µM (K562) was 84% and the growth, % of control at 10 µM (SK-MEL-2) was 106%. The growth, % of control at 10 µM (MDA-MB-468) was 94%, the growth, % of control at 10 µM (NCI-H23) was 107% and the growth, % of control at 10 µM (SK-MEL-5) was 81%. It also gave a growth, % of control at 10 µM (NCI-H522) of 92%, a growth, % of control at 10 µM (ACHN) of 102% and a growth, % of control at 10 µM (CCRF-CEM) of 83%.
